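Where inhibition never reached the appropriate level, the endpoint shown equals the highest concentration tested. Otherwise, values were interpolated linearly from a five-concentration, 48-hour dose response in 96-well plates. GI50 marks 50% less growth.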 Activity calls are given as the source filed them. Cut-off read from the data, not from the text of the source: active = GI50 up to about 1.1 µM and inactive = higher. Where a SMILES comes first, the peptide text is derived from it. [ ]: non-standard residue; d: D form. The star is where a group is joined. Bn2Val = CC(C)[C@@H](C(=O)*)N(Cc1ccccc1)Cc1ccccc1; NHPiperonyl = c1cc2c(cc1CN*)OCO2; NMeV = CN[C@H](C(=O)O)C(C)C; dNMeA = CN[C@H](C)C(=O)O

The term GI50 denotes the concentration that inhibits growth by half.

Test systems include MCF7; UO-31; SF-268; UACC-62; SN12C; EKVX; NCI-H226; RXF 393; HCT-15; HOP-92; CAKI-1; HOP-62; SK-MEL-5; MDA-MB-435; SK-MEL-28; A549; K562; MOLT-4; MDA-N.
Holding throughout (experiment): DTP human tumour cell line panel, 48 h

For the molecule `Oc1ccc2ccccc2c1OCc1nnc(CCCCCCCCc2nnc(COc3c(O)ccc4ccccc34)n2Nc2ccccc2)n1Nc1ccccc1`, the GI50 in the test with MCF7 is 5.62 µM (inactive); in the test on UO-31, 7.46 µM (inactive); with SF-268 it was 6.17 µM (inactive); in the test on UACC-62, 0.855 µM (active); in the test on SN12C, 35.7 µM (inactive); in the test on EKVX, 15.4 µM (inactive). Moreover, the GI50 was 8.32 µM (inactive) with NCI-H226; 28.5 µM (inactive) with RXF 393; 16.5 µM in the test with HCT-15; 17.2 µM (inactive) in the test with HOP-92; 12.3 µM (inactive) with CAKI-1; 1.06 µM (active) in the test on HOP-62. Besides, the GI50 is 0.536 µM (active) in the test with SK-MEL-5; 2.43 µM (inactive) in the test with MDA-MB-435; 5.14 µM (inactive) with SK-MEL-28; 10.5 µM (inactive) in the test with A549; 0.0407 µM (active) in the test with K562.
On to `C1=CC2C(C3CN(c4ccccc4)N=C13)C1C3C4C=CC21C=CC43` (centres undefined), for which the GI50 with MCF7, with UO-31, in the test on SF-268, with UACC-62, in the test on SN12C and in the test with EKVX was > 100 µM (inactive) throughout. In addition, the GI50 with NCI-H226 is > 100 µM (inactive); in the test on MOLT-4, > 100 µM (inactive); in the test on RXF 393, 0.172 µM (active); in the test on HCT-15, over 100 µM; in the test on HOP-92, 80 µM (inactive); with CAKI-1, > 100 µM (inactive). In addition, the GI50 in the test with HOP-62, with SK-MEL-5, in the test with MDA-MB-435, in the test with SK-MEL-28, in the test on A549 and with K562 was > 100 µM (inactive) in each case.
In the case of `CN(C)CCNC(=O)c1ccc(C(=O)NCCN(C)C)c2nc3ccccc3cc12`, the GI50 in the test on UO-31 was 4.81 µM (inactive); in the test with SF-268, 0.962 µM (active); in the test with UACC-62, 1.15 µM (inactive); with SN12C, 0.83 µM (active); with EKVX it was 1.81 µM (inactive); in the test with NCI-H226, 1.16 µM (inactive). Also, the GI50 in the test with MOLT-4 is 0.226 µM (active); with RXF 393, 0.762 µM (active); with HCT-15, 2.96 µM; in the test on HOP-92 it was 1.41 µM (inactive); in the test with CAKI-1, 1.48 µM (inactive); in the test on HOP-62, 0.979 µM (active). Also, the GI50 was 1.49 µM (inactive) with SK-MEL-5, 1.74 µM (inactive) in the test on SK-MEL-28, 0.45 µM (active) in the test with A549 and 0.61 µM (active) in the test with K562.
Regarding `Cc1ncc([N+](=O)[O-])n1CCNC(=O)CCCCn1ccnc1[N+](=O)[O-]`, the GI50 in the test with MCF7, in the test on UO-31, in the test on MDA-N, in the test on SF-268, in the test on UACC-62 and in the test with SN12C was > 100 µM (inactive) each time. The GI50 with NCI-H226 is > 100 µM (inactive); in the test with MOLT-4, > 100 µM (inactive); in the test on HCT-15, over 100 µM; in the test with CAKI-1 it was > 100 µM (inactive); with HOP-62, > 100 µM (inactive); in the test on SK-MEL-5, > 100 µM (inactive). Also, the GI50 in the test on MDA-MB-435, in the test with A549 and with K562 was > 100 µM (inactive) each time.
Regarding `CN(C)CC(NC(NCS)C(=O)NCCNc1ccc(NCCNC(=O)C(NCS)NC(CN(C)C)OCCl)c2c1C(=O)c1c(O)ccc(O)c1C2=O)OCCl` (centres undefined), the 50% growth inhibitory concentration (GI50) was 0.01 µM (active) in the test with MCF7; 0.0331 µM (active) in the test with UO-31; 0.267 µM (active) in the test on MDA-N; 0.0557 µM (active) with SF-268; 0.0301 µM (active) in the test with UACC-62; 0.0311 µM (active) in the test on SN12C. Besides, the GI50 is 0.228 µM (active) in the test with EKVX; 0.0585 µM (active) with NCI-H226; 0.13 µM in the test with HCT-15; < 0.001 µM (active) in the test on CAKI-1; 0.0151 µM (active) in the test with HOP-62; 0.113 µM (active) in the test on SK-MEL-5. Moreover, the GI50 was 0.151 µM (active) in the test with MDA-MB-435, 0.0229 µM (active) with SK-MEL-28, < 0.001 µM (active) in the test on A549 and 0.00678 µM (active) in the test with K562.
As for `O=C1c2ccccc2C2(O)Nc3cc(O)ccc3C12O` (centres undefined), the GI50 in the test on SF-268, in the test on UACC-62, in the test with SN12C, in the test with EKVX, in the test on NCI-H226 and in the test on MOLT-4 was > 100 µM (inactive) each time. Also, the GI50 is > 100 µM (inactive) in the test on RXF 393; over 100 µM in the test on HCT-15; > 100 µM (inactive) with HOP-92; > 100 µM (inactive) with CAKI-1; > 100 µM (inactive) in the test on HOP-62; > 100 µM (inactive) in the test on SK-MEL-5. In addition, the GI50 with SK-MEL-28, in the test on A549 and with K562 was > 100 µM (inactive) throughout.
With `COC(=O)C1CC(c2ccc(Cl)cc2)=NO1` (centres undefined), the GI50 in the test with UO-31, with SF-268, in the test with UACC-62, in the test on SN12C, in the test with EKVX and in the test on NCI-H226 was > 100 µM (inactive) in each case. For the same molecule, the GI50 was > 100 µM (inactive) with MOLT-4; over 100 µM with HCT-15; > 100 µM (inactive) in the test on HOP-92; 6.17 µM (inactive) in the test on CAKI-1; > 100 µM (inactive) in the test on HOP-62; > 100 µM (inactive) in the test with SK-MEL-5. In addition, the GI50 in the test with SK-MEL-28, with A549 and in the test on K562 was > 100 µM (inactive) throughout.
Take `CC(C)(C)CNC(=O)NCn1cc(-c2ccccc2)nn1`: the GI50 was > 100 µM (inactive) in the test with MCF7; > 100 µM (inactive) in the test with SF-268; > 100 µM (inactive) in the test on SN12C; > 100 µM (inactive) in the test on EKVX; 64.6 µM (inactive) in the test with NCI-H226; > 100 µM (inactive) in the test with MOLT-4. For the same molecule, the GI50 in the test with HCT-15 was over 100 µM; in the test on HOP-92, > 100 µM (inactive); in the test with CAKI-1, > 100 µM (inactive); with HOP-62, > 100 µM (inactive); with SK-MEL-5 it was > 100 µM (inactive); in the test with SK-MEL-28 it was > 100 µM (inactive). Also, the GI50 in the test with A549 and with K562 was > 100 µM (inactive) in each case.
On to `COc1cccc(C=C2N=C(c3ccccc3)N(n3c(-c4ccccc4)nc4ccccc4c3=O)C2=O)c1`, for which the GI50 is 52 µM (inactive) in the test on MCF7; 40.1 µM (inactive) in the test with UO-31; 48.3 µM (inactive) in the test on MDA-N; 56.4 µM (inactive) in the test on SF-268; 26.2 µM (inactive) in the test on UACC-62; 57.8 µM (inactive) in the test with SN12C. Further, the GI50 with EKVX was 43.6 µM (inactive); with NCI-H226, > 100 µM (inactive); in the test on MOLT-4, 30.3 µM (inactive); with HCT-15, 54.3 µM; in the test with CAKI-1, 41.2 µM (inactive); in the test with HOP-62, 85.1 µM (inactive). The GI50 is 34.8 µM (inactive) with SK-MEL-5; > 100 µM (inactive) with MDA-MB-435; 63.2 µM (inactive) in the test with SK-MEL-28; 43.7 µM (inactive) with A549; 68.9 µM (inactive) with K562.
Consider `CC1C(OC2O[C@@H]3O[C@@]4(C)CC[C@H]5[C@H](C)CC[C@@H](C2C)[C@@]35O4)O[C@@H]2O[C@@]3(C)CC[C@H]4[C@H](C)CC[C@@H]1[C@@]24O3` (some centres undefined), for which the GI50 with MCF7, with MDA-N, in the test on SF-268, with UACC-62, in the test with SN12C and with EKVX was > 50 µM (inactive) in each case. Also, the GI50 was > 50 µM (inactive) in the test on NCI-H226; > 50 µM (inactive) with MOLT-4; over 50 µM in the test with HCT-15; > 50 µM (inactive) with CAKI-1; > 50 µM (inactive) in the test on HOP-62; > 50 µM (inactive) in the test with SK-MEL-5. The GI50 in the test on MDA-MB-435, in the test with SK-MEL-28, in the test on A549 and in the test on K562 was > 50 µM (inactive) in each case.
For `CC(C)[C@H](NC(=O)[C@H](C(C)C)N(Cc1ccccc1)Cc1ccccc1)C(=O)N(C)[C@H](C(=O)N1CCC[C@H]1C(=O)N(C)[C@H](C)C(=O)NCc1ccc2c(c1)OCO2)C(C)C` (Bn2Val-V[NMeV]P[dNMeA]-NHPiperonyl), the GI50 in the test with MCF7 was 2.25 µM (inactive); in the test with UO-31, 21.6 µM (inactive); with MDA-N it was 12.1 µM (inactive); in the test with SF-268, 17.7 µM (inactive); with UACC-62, 13 µM (inactive); with EKVX it was 4.98 µM (inactive). Moreover, the GI50 was 16.8 µM (inactive) in the test with NCI-H226; 2.73 µM (inactive) in the test on MOLT-4; 3.54 µM with HCT-15; 19.9 µM (inactive) with CAKI-1; 29.9 µM (inactive) with HOP-62; 17.2 µM (inactive) in the test on MDA-MB-435. In addition, the GI50 is 22.4 µM (inactive) with SK-MEL-28, 15.6 µM (inactive) in the test with A549 and 2.59 µM (inactive) in the test on K562.
For `CN1CCC2(CC1)/C(=N/C1CCCCC1)NC(=O)N2c1ccccc1`, the GI50 with MCF7, in the test with UO-31, in the test on SF-268, in the test with UACC-62, in the test with SN12C and with EKVX was > 100 µM (inactive) throughout. Also, the GI50 in the test on NCI-H226 is > 100 µM (inactive); in the test with MOLT-4 it was > 100 µM (inactive); in the test with RXF 393, > 100 µM (inactive); with HCT-15, over 100 µM; with HOP-92, 43.7 µM (inactive); in the test on HOP-62, > 100 µM (inactive). Also, the GI50 in the test with SK-MEL-5, in the test with SK-MEL-28 and in the test with A549 was > 100 µM (inactive) each time.

Values taken from ChEMBL document CHEMBL1201862, “PubChem BioAssay data set” (2004).
